This note sets out measurements from patent US20250026747A1, “COLIBACTIN DERIVATIVES AND METHODS OF TREATING, AMELIORATING, AND/OR PREVENTING CANCER” (priority 2021, published 2025).

One series deals with eukaryotic cells. Briefly: Genotoxicity of synthetic colibactin 770 in eukaryotic cells. The class given is cell-based. The settings on record: eukaryotic cells treated with the synthetic compound.
Series [1] can be described thus: Stability of colibactin 770 in aqueous buffer (LC-MS time course). The class given is physicochemical. The method, then: FIG. 9 depicts the percentage of colibactin 770 (M+Na) over time at pH 7.4, 37° C. according to some embodiments. Specifically, the linear precursor to colibactin 770 (nominally 404 nmol), prepared according to Xu et al. (Science 2019, 365) was dissolved in DMSO (100 μL) and the resulting solution was diluted with PBS buffer (400 μL) at 22° C. This solution was immediately warmed to 37° C. in a preheated water bath. Aliquots (15 μL) were taken at 0 min, 5 min, 10 min, 15 min, 30 min, 60 min, 120 min, 180 min, 240 min, 300 min, and 480 min. Each aliquot was dissolved in acetonitrile (150 μL) and then immediately frozen in liquid nitrogen. The frozen aliquots were stored at −78° C. until the time course was complete. Aliquots were quickly thawed and analyzed using a Shimadzu Scientific Instruments QToF 9030 LC-MS system, equipped with a Nexera LC-40D xs UHPLC, consisting of a CBM-40 Lite system controller, a DGU-405 Degasser Unit, two LC-40D XS UHPLC pumps, a SIL-40C XS autosampler and a Column Oven CTO-40S. UV data was collected with a Shimadzu Nexera HPLC/UHPLC Photodiode Array Detector SPD M-40 in the range of 190-800 nm. Mass spectra were recorded with the quadrupole time-of-flight (QToF) 9030 mass spectrometer. The samples were held at 4° C. in the autosampler compartment. […]

The test system of a further series is linearized pUC19 DNA. The experiment in a line: DNA cross-linking assay with linearized pUC19 DNA, denaturing agarose gel electrophoresis. The class given is biochemical. The conditions noted are these: linearized pUC19 DNA, pH 7.0, 1 nM-100 μM. As for the experimental part: FIGS. 6A-6C depict the DNA crosslinking ability of several compounds according to some embodiments. The DNA cross-linking assays employ linear pUC19 DNA. DMSO was used as vehicle (negative control), and 100 μM cisplatin was used as positive controls. The DNA was analyzed by 0.4% NaOH denaturing and agarose gel electrophoresis (90 V, 1.5 h). FIG. 6A depicts the DNA cross-linking comparison of colibactin 770 (3a), stable colibactin 742 (4), and its linear precursor 9 at pH 5.0. FIG. 6B depicts the comparison of the relative DNA cross-linking abilities of colibactin 742 (4) and its linear precursor 9 at pH 5.0. FIG. 6C depicts the comparison of the relative DNA cross-linking abilities of colibactin 742 (4) and its linear precursor 9 at pH 7.0.
FIG. 10 depicts the DNA cross-linking assay employing linear pUC19 DNA and synthetic colibactin (3), 9, and colibactin 742 (4) according to some embodiments. Specifically, 5% DMSO was used as vehicle (negative control), and 100 μM cisplatin was used as positive control. DNA ladder (Lane #1); 5% DMSO (Lane #2); 100 μM cisplatin (Lane #3); 200 μM colibactin (3) (Lane #4); 100 μM colibactin (3) (Lane #5); 10 μM colibactin (3) (Lane #6); 1 μM colibactin (3) (Lane #7); 200 μM 9 (Lane #8); 100 μM 9 (Lane #9); 10 μM 9 (Lane #10); 1 μM 9 (Lane #11); 200 μM colibactin 742 (4) (Lane #12); 100 μM colibactin 742 (4) (Lane #13); 10 μM colibactin 742 (4) (Lane #14); 1 μM colibactin 742 (4) (Lane #15). Conditions (Lane #3): linearized pUC19 DNA (15.4 μM in base pairs), 5% DMSO (vehicle), 100 μM cisplatin, 10 mM citric buffer, pH 5.0, 4 h, 37° C. Conditions (Lanes #4-#7): linearized pUC19 DNA (15.4 μM in base pairs), colibactin (3) (200 μM-1 μM), 5% DMSO, 10 mM citric buffer, pH 5.0, 4 h, 37° C. Conditions (Lanes #8-#11): linearized pUC19 DNA (15.4 μM in base pairs), 9 (200 μM-1 μM), 5% DMSO, 10 mM citric buffer, pH 5.0, 4 h, 37° C. Conditions (Lanes #12-#15): linearized pUC19 DNA (15.4 μM in base pairs), colibactin 742 (4) (200 μM-1 μM), 5% DMSO, 10 mM citric buffer, pH 5.0, 4 h, 37° C. The DNA was analyzed by native, 0.2% NaOH, 0.4% NaOH, and 1% NaOH denaturing agarose gel electrophoresis (90 V, 1.5 h). Linear=linearized DNA in native form, linear-denat.=linearized DNA in denaturing form, linear-XL=linerized DNA cross-linked by colibactins or cisplatin.
FIG. 11 depicts the DNA cross-linking assay employing linear pUC19 DNA and synthetic colibactin fragments 23, 24, and 22. Specifically, 5% DMSO was used as vehicle (negative control), and 100 μM cisplatin was used as positive control. DNA ladder (Lane #1); 5% DMSO (Lane #2); 100 μM cisplatin (Lane #3); 500 μM 23 (Lane #4); 100 μM 23 (Lane #5); 10 μM 23 (Lane #6); 1 μM 23 (Lane #7); 100 nm 23 (Lane #8); 500 μM 24 (Lane #9); 100 μM 24 (Lane #10); 10 μM 24 (Lane #11); 1 μM 24 (Lane #12); 100 nm 24 (Lane #13); 500 μM 22 (Lane #14); 100 μM 22 (Lane #15); 10 μM 22 (Lane #16); 1 μM 22 (Lane #17); 100 nm 22 (Lane #18). Conditions (Lane #2): linearized pUC19 DNA (15.4 μM in base pairs), 5% DMSO (vehicle), 10 mM citric buffer, pH 5.0, 4 h, 37° C. Conditions (Lane #3): linearized pUC19 DNA (15.4 μM in base pairs), 5% DMSO (vehicle), 100 μM cisplatin, 10 mM citric buffer, pH 5.0, 4 h, 37° C. Conditions (Lanes #4-#8): linearized pUC19 DNA (15.4 μM in base pairs), 23 (500 μM-100 nM), 5% DMSO, 10 mM citric buffer, pH 5.0, 4 h, 37° C. Conditions (Lanes #9-#13): linearized pUC19 DNA (15.4 μM in base pairs), 24 (500 μM-1 μM), 5% DMSO, 10 mM citric buffer, pH 5.0, 4 h, 37° C. Conditions (Lanes #14-#18): linearized pUC19 DNA (15.4 μM in base pairs), 22 (500 μM-100 nM), 5% DMSO, 10 mM citric buffer, pH 5.0, 4 h, 37° C. The DNA was analyzed by native, 0.2% NaOH, 0.4% NaOH, and 1% NaOH denaturing agarose gel electrophoresis (90 V, 1.5 h). Linear=linearized DNA in native form, linear-denat.=linearized DNA in denaturing form, linear-XL=DSB/linerized DNA cross-linked by colibactins or cisplatin. […]

Bounds are passed on as bounds.

For `C[C@H]1CCC(C2=C(CC(=O)NCC(=O)c3csc(C(=O)C(=O)c4csc(CNC(=O)CC5=C(C6=N[C@@H](C)CC6)C(=O)NC56CC6)n4)n3)C3(CC3)NC2=O)=N1` [colibactin 770 (3a)], the genotoxicity result in the series on eukaryotic cells is reported as “no genotoxicity was observed”. In series [1] (pH 7.0), the “stability at pH 7.0” value is “readily decomposes”. In addition, the “time to degradation in aqueous buffer” value in series [1] (pH 7.4, 37° C.) is at most 2 h. Also, the “DNA interstrand cross-link (ICL) formation” value in the series on linearized pUC19 DNA is given as “fails to produce detectable levels of ICLs”.
